Experimental data reported in patent US20100144890A1, “USE OF A SURFACTANT FOR THE PREPARATION OF A FORMULATION FOR THE TREATMENT OF ADIPOSE DISEASES” (priority 2007, published 2010).
Read-outs that look alike come from different tables or passages of the source.

How the values were obtained:
Format in all cases: cell-based
[1] = tested on: Adipocytes (method: 3T3-L1 adherent cells); assay: Calcein-AM cytotoxicity / cell viability assay
Experimental: Cytotoxicity Assay in Adherent Cells (3T3-L1) using the Calcein-AM Method:
[…] […] […] Then, the wells were washed and the cells incubated with Calcein-AM (1 μM) (Molecular Probes) for 30 min. Then the fluorescence of viable cells was detected in a microtitre plate reader (TECAN Genius Pro). Using this method the uptake of Calcein-AM by viable cells is measured. Calcein-AM his hydrolysed by cellular esterases and then the fluorescence emitted by calcein is detected in the plate reader (excitation: 490 nm, emission: 515 nm)
[…] In this type of assay the higher RFU (relative fluorescent unit) correspond to viable cells.

[2] = tested on: Primary human preadipocytes; assay: LDH release cytotoxicity assay (CytoTox-ONE) in undifferentiated preadipocytes
Experimental: (§1) Primary human preadipocytes were obtained from Promocell (Heidelberg, Germany). The Order No is C-12731 and the Lot-No 5112201 (abdomen, person).
Human preadipocytes cells were maintained in Preadipocyte Growth Medium (DMEM; BioWhitaker Cat: BE12-604F/U1; Lot N° 6MB0130 containing 10% heat-inactivated FCS and 1% penicillin-streptomycin) at 37° C. in a humidified atmosphere of 5% CO2. The cells were expanded in several T75 flasks to reach 60-80% confluence. To differentiate the preadipocytes (10^4 cells/well) were grown in 96 well plates to reach confluence. At this point (day 0), cells were switched to differentiation medium (DMEM, 10% FBS, 0.25 μM dexamethasone, 0.25 mM IBMX, and […] insulin) for 3 days, with one medium change in between. On day 3, the dexamethasone and IBMX was removed leaving insulin on the cells for an additional 4 days, changing the medium every 2 days. Thereafter, the cells were maintained in the original propagation DMEM, changing medium every 2-3 days until use. Plates where cells are >75% differentiated were used for experiments (day 10 post-induction). […]
Cytotoxicity assays: The CytoTox-ONE™ Homogeneous Membrane Integrity Assay from Promega was used to study LDH release (The Lot-No 234242/27/09/08). Differentiated adipocytes were treated with the test compounds for either 24 or 48 hours and the release of LDH detected using the fluorimetric assay CytoTox-ONE (see above) according to the manufacturer's instructions. Maximum LDH release was determined by complete lysis of cells using 0.1% Triton X-100. […] The fluorescence was detected in a Genius Pro apparatus using specific 96 microwells plates for fluorescence. […]
(§2) The percentages cytotoxicity by LDH release were calculated according to the manufacturer's instruction (http://www.promega.com/tbs/tb306/tb306.pdf)
(§3) According to this calculation the spontaneous release in untreated cells may indicate some cytotoxicity in untreated cells. […] This type of calculation may induce to misinterpretations and therefore the specific cytotoxicity was calculated according to the following formula: […]

[3] = tested on: differentiated human primary adipocytes; assay: LDH release cytotoxicity assay (CytoTox-ONE) in differentiated adipocytes
Experimental: as §1
Human preadipocytes cells were maintained in Preadipocyte Growth Medium (DMEM; BioWhitaker Cat: BE12-604F/U1; Lot N° 6MB0130 containing 10% heat-inactivated FCS and 1% penicillin-streptomycin) at 37° C. in a humidified atmosphere of 5% CO2. The cells were expanded in several T75 flasks to reach 60-80% confluence. To differentiate the preadipocytes (10^4 cells/well) were grown in 96 well plates to reach confluence. At this point (day 0), cells were switched to differentiation medium (DMEM, 10% FBS, 0.25 μM dexamethasone, 0.25 mM IBMX, and […] insulin) for 3 days, with one medium change in between. On day 3, the dexamethasone and IBMX was removed leaving insulin on the cells for an additional 4 days, changing the medium every 2 days. Thereafter, the cells were maintained in the original propagation DMEM, changing medium every 2-3 days until use. Plates where cells are >75% differentiated were used for experiments (day 10 post-induction). Adipocytes are round and full of easily distinguishable fat globules after 7 days of culture.
Cytotoxicity assays: The CytoTox-ONE™ Homogeneous Membrane Integrity Assay from Promega was used to study LDH release (The Lot-No 234242/27/09/08). Differentiated adipocytes were treated with the test compounds for either 24 or 48 hours and the release of LDH detected using the fluorimetric assay CytoTox-ONE (see above) according to the manufacturer's instructions. Maximum LDH release was determined by complete lysis of cells using 0.1% Triton X-100. Control cells treated with water alone were used to determine the baseline level of LDH release (0% cell death). The fluorescence was detected in a Genius Pro apparatus using specific 96 microwells plates for fluorescence. We used excitation filters in the 530-570 nm range and emission filters in the 580-620 nm range.
as §2, §3
S.C. values below 0% were considered arbitrary as 0% of substance-induced cytotoxicity.
To confirm the cytotoxic activity of the test substance at certain concentrations, undifferentiated (24 h treatment) and differentiated human primary adipocytes the cultures were treated with the indicated dilutions during 24 h and 48 h and the release of LDH measured in the supernatants.

[4] = Table 2, dilution 1:12800, 24 h

Compound	Adipocytes (Calcein-AM) 24 h, toxicity ([1]; dilution 1:50)	Adipocytes (Calcein-AM) 24 h, toxicity ([1]; dilution 1:100)	Adipocytes (Calcein-AM) 24 h, toxicity ([1]; dilution 1:200)	Adipocytes (Calcein-AM) 24 h, toxicity ([1]; dilution 1:400)	Adipocytes (Calcein-AM) 24 h, toxicity ([1]; dilution 1:6400)	Adipocytes (Calcein-AM) 24 h, toxicity ([1]; dilution 1:12800)	Adipocytes (LDH) 24 h, toxicity ([3]; Table 2, dilution 1:50, 24 h)	Adipocytes (LDH) 24 h, toxicity ([3]; Table 2, dilution 1:100, 24 h)	Adipocytes (LDH) 24 h, toxicity ([3]; Table 2, dilution 1:200, 24 h)	Adipocytes (LDH) 24 h, toxicity ([3]; Table 2, dilution 1:800, 24 h)	Adipocytes (LDH) 24 h, toxicity ([3]; Table 2, dilution 1:1600, 24 h)	Adipocytes (LDH) 24 h, toxicity ([3]; Table 2, dilution 1:3200, 24 h)	Adipocytes (LDH) 24 h, toxicity ([3]; Table 2, dilution 1:6400, 24 h)	Adipocytes (LDH) 24 h, toxicity [3, 4]	also measured
CCCCCCCCCCCCOS(=O)(=O)[O-].[Na+] [sodium laurylsulfate]															potency compared with the other inventive substances ([1]; cytotoxicity on adipocytes): even more potent; Adipocytes (Calcein-AM) 6 h, toxicity ([1]; dilution 1:4000): Toxic; Adipocytes (Calcein-AM) 24 h, toxicity ([1]; dilution 1:4000): Toxic; Adipocytes (Calcein-AM) 6 h, toxicity ([1]; dilution 1:16,000): Toxic; Adipocytes (Calcein-AM) 24 h, toxicity ([1]; dilution 1:16,000): Toxic; Adipocytes (Calcein-AM) 6 h, toxicity ([1]; dilution 1:512000): Non-Toxic; Adipocytes (Calcein-AM) 24 h, toxicity ([1]; dilution 1:512000): Non-Toxic
polysorbate 80 [Test Substance 1]	Toxic	Toxic	Toxic	Toxic	Non-toxic	Non-toxic	Toxic	Toxic	Toxic	Toxic	Non-toxic	Non-toxic	Non-toxic	Non-toxic	Preadipocytes (LDH) 24 h, cytotoxicity [2]: Toxic (38.1%); Adipocytes (Calcein-AM) 24 h, toxicity ([1]; dilution 1:800): Toxic; Adipocytes (Calcein-AM) 24 h, toxicity ([1]; dilution 1:3200): Non-toxic; Differentiated Adipocytes (LDH) 24 h, cytotoxicity [3]: Toxic (42.8%); Differentiated Adipocytes (LDH) 48 h, cytotoxicity [3]: Toxic (100%); Adipocytes (LDH) 24 h, toxicity ([3]; Table 2, dilution 1:400, 24 h): Toxic
polyethoxylated castor oil [Test Substance 2]	Toxic	Toxic	Toxic	Toxic	Non-toxic	Non-toxic	Toxic	Toxic	Toxic	Non-toxic	Non-toxic	Non-toxic	Non-toxic	Non-toxic	Preadipocytes (LDH) 24 h, cytotoxicity ([2]; dilution 1:512, 24 h treatment): Toxic (32.6%); Preadipocytes (LDH) 24 h, toxicity ([2]; dilution 1:10000, 24 h treatment): Non-toxic; Differentiated Adipocytes (LDH) 24 h, cytotoxicity ([3]; Table 1, dilution 1:512, 24 h): Toxic (56.1%); Differentiated Adipocytes (LDH) 24 h, toxicity ([3]; Table 1, dilution 1:10000, 24 h): Non-toxic; Adipocytes (LDH) 24 h, cytotoxicity ([3]; Table 2, dilution 1:400, 24 h): Toxic (43.6%); Differentiated Adipocytes (LDH) 48 h, cytotoxicity ([3]; dilution 1:512, 48 h): Toxic (100%); Differentiated Adipocytes (LDH) 48 h, cytotoxicity ([3]; dilution 1:10000, 48 h): toxic (20.3%)
